In PubChem BioAssay (NCI):
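Cells were grown in 96-well plates and exposed to each compound for 48 hours at five concentrations; endpoints were interpolated linearly between bracketing concentrations, or set to the highest concentration if not reached. TGI is the concentration that stops growth completely.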

How the values were obtained:
Assay in all cases: growth of human tumour cells (NCI), 48 h
[1] = system: HOP-62 NSCLC
[2] = system: HOP-92 NSCLC
[3] = system: OVCAR-4 ovarian
[4] = system: M14 melanoma
[5] = system: U251 CNS
[6] = system: TK-10 renal
[7] = system: SK-MEL-28 melanoma
[8] = system: UO-31 renal
[9] = system: SNB-75 CNS
[10] = system: K-562 leukemia
[11] = system: HCT-116 colon
[12] = system: OVCAR-5 ovarian
[13] = system: A549 NSCLC
[14] = system: SK-MEL-5 melanoma
[15] = system: HL-60(TB) leukemia
[16] = system: MCF7 breast
[17] = system: CAKI-1 renal
[18] = system: MDA-MB-231 breast
[19] = system: RXF 393 renal
[20] = system: BT-549 breast
[21] = system: SR leukemia
[22] = system: HS 578T breast
[23] = system: IGROV1 ovarian
[24] = system: OVCAR-3 ovarian
[25] = system: NCI-H522 lung
[26] = system: EKVX NSCLC
[27] = system: RPMI-8226 leukemia
[28] = system: NCI-H23 lung
[29] = system: CCRF-CEM leukemia
[30] = system: NCI-H226 lung
[31] = system: MDA-MB-435
[32] = system: UACC-62 melanoma
[33] = system: SK-OV-3 ovarian
[34] = system: 786-0 renal
[35] = system: PC-3 prostate
[36] = system: UACC-257 melanoma
[37] = system: SF-539 CNS
[38] = system: SK-MEL-2 melanoma
[39] = system: SNB-19 CNS
[40] = system: OVCAR-8 ovarian
[41] = system: MOLT-4 leukemia
[42] = system: T-47D breast
[43] = system: MALME-3M melanoma
[44] = system: COLO 205 colon
[45] = system: HCT-15 colon
[46] = system: MDA-N
[47] = system: A498 renal
[48] = system: HT29 colon
[49] = system: SF-268 CNS
[50] = system: ACHN renal
[51] = system: SN12C renal
[52] = system: DU-145 prostate
[53] = system: NCI/ADR-RES ovarian
[54] = system: LOX IMVI melanoma
[55] = system: SF-295 CNS
[56] = system: HCC-2998 colon
[57] = system: SW-620 colon
[58] = system: NCI-H460 lung
[59] = system: KM12 colon

O=C(CCCN1CCC2(CC1)CC(=O)N(N1CCCCCC1)C2=O)c1ccccc1
TGI [1]: > 100 µM
TGI [2]: > 100 µM
TGI [3]: > 100 µM
TGI [4]: > 100 µM
TGI [5]: > 100 µM
TGI [6]: > 100 µM
TGI [7]: > 100 µM
TGI [8]: > 100 µM
TGI [9]: > 100 µM
TGI [10]: > 100 µM
TGI [11]: > 100 µM
TGI [12]: > 100 µM
TGI [13]: > 100 µM
TGI [14]: > 100 µM
TGI [15]: > 100 µM
TGI [16]: > 100 µM
TGI [17]: > 100 µM
TGI [18]: > 100 µM
TGI [19]: > 100 µM
TGI [20]: > 100 µM
TGI [21]: > 100 µM
TGI [22]: > 100 µM
TGI [23]: > 100 µM
TGI [24]: > 100 µM
TGI [25]: > 100 µM
TGI [26]: > 100 µM
TGI [27]: > 100 µM
TGI [28]: > 100 µM
TGI [29]: > 100 µM
TGI [30]: > 100 µM
TGI [31]: > 100 µM
TGI [32]: > 100 µM
TGI [33]: > 100 µM
TGI [34]: > 100 µM
TGI [35]: > 100 µM
TGI [36]: > 100 µM
TGI [37]: > 100 µM
TGI [38]: > 100 µM
TGI [39]: > 100 µM
TGI [40]: > 100 µM
TGI [41]: > 100 µM
TGI [42]: > 100 µM
TGI [43]: > 100 µM
TGI [44]: > 100 µM
TGI [45]: > 100 µM
TGI [46]: > 100 µM
TGI [47]: > 100 µM
TGI [48]: > 100 µM
TGI [49]: > 100 µM
TGI [50]: > 100 µM
TGI [51]: > 100 µM
TGI [52]: > 100 µM
TGI [53]: > 100 µM
TGI [54]: > 100 µM
TGI [55]: > 100 µM

CNc1ccc2c(c1)[C@@]1(C)c3ccccc3[C@@H](C2)N1C
TGI [1]: > 100 µM
TGI [2]: 74.4 µM
TGI [3]: > 100 µM
TGI [4]: 49.6 µM
TGI [5]: 47.5 µM
TGI [56]: 44.5 µM
TGI [57]: > 100 µM
TGI [6]: 86.2 µM
TGI [8]: > 100 µM
TGI [10]: 67.5 µM
TGI [11]: 33.4 µM
TGI [12]: 86.2 µM
TGI [13]: > 100 µM
TGI [14]: 32 µM
TGI [15]: 38.5 µM
TGI [16]: > 100 µM
TGI [17]: > 100 µM
TGI [18]: 62.6 µM
TGI [19]: 50.8 µM
TGI [20]: 35.9 µM
TGI [21]: 54.7 µM
TGI [22]: > 100 µM
TGI [23]: > 100 µM
TGI [58]: 39.9 µM
TGI [24]: 50.5 µM
TGI [59]: 78.3 µM
TGI [25]: 37.7 µM
TGI [26]: 97.3 µM
TGI [27]: 38.9 µM
TGI [28]: 61.5 µM
TGI [29]: 52.7 µM
TGI [31]: 39.1 µM
TGI [32]: 35.7 µM
TGI [33]: > 100 µM
TGI [34]: 34.3 µM
TGI [35]: > 100 µM
TGI [36]: 60.6 µM
TGI [38]: 51.7 µM
TGI [39]: > 100 µM
TGI [41]: 47.6 µM
TGI [42]: > 100 µM
TGI [43]: 82.1 µM
TGI [45]: 53 µM
TGI [46]: 74.7 µM
TGI [47]: 74 µM
TGI [48]: 64.8 µM
TGI [49]: > 100 µM
TGI [50]: > 100 µM
TGI [51]: 33 µM
TGI [52]: > 100 µM
TGI [53]: 64.2 µM
TGI [54]: 36.6 µM
TGI [55]: > 100 µM
